Test results as given in patent US20240197666A1, “DITERPENOID COMPOUNDS THAT ACT ON PROTEIN KINASE C (PKC)” (K-Gen Therapeutics, Inc., priority 2021, published 2024).
Several values for one entry are separate records, joined by “and”; a condition that tells them apart may be missing. Equal entries are not always repeated. Where two headings read alike, the source gives them in different places.

Legend:
A549 cell line = assay: Proliferation of A549 (CellTiter Glo); format: cell-based; settings: read-out: IC50 μM (A549 Cell Line)
Method: (§1) The diterpenoid compounds were tested in A549, a non-small cell lung cancer cell line harboring a K-Ras activating mutation. Briefly, A549 cells at a density of 1,000 cells/well were seeded in 96-well plates and incubated at 37° C. for 24 hours. A series of different concentrations of compound stocks (500×) were prepared by 3-fold serial dilution in DMSO. These compounds were further diluted in culture media and then added to cells so that the final DMSO concentration was not exceeding 0.25%. After 96 hours of incubation, 50 μL of CellTiter Glo reagent (Promega) was added to each well and luminescence was measured after 10 minutes using EnVision (PerkinElmer). Luminescence from cells treated with DMSO alone was set as Max and % of inhibition was calculated as follows: Inhibition %=(Max-Sample value)/Max×100. Data was analyzed using XL-fit software (ID Business Solutions Ltd.) and IC50, relative IC50, and % of top inhibition was calculated. Some of the compounds in this disclosure were very potent in blocking proliferation of A549 lung cancer cells at low nM range. In addition, potency of inhibiting A549 proliferation correlated well with its binding affinity to PKCs for this series of compounds. In other words, higher affinity binders had stronger inhibitory effects on A549 proliferation. This further support the notion that activation, rather than inhibition, of certain PKC isoforms is required to block proliferation of cancer cells, some of which may harbor K-Ras mutations. This is in sharp contrast to previous literature and common belief that inhibition of PKC is necessary to block cancer cell growth (Kang, 2014, New Journal of Science, 2014:1-36). Data presented here is in agreement with recent findings that many loss-of-function but not gain-of-function mutations of PKC isoforms have been identified in many human cancers (Antal et al., 2015, Cell, 160:489-502).

[1] = test system: NFκB-driven transcription in HeLa-NFκB luciferase reporter cell line; assay: NFκB luciferase reporter assay; settings: Homo sapiens, HeLa, 16 h, read-out: NFκB-luc HeLa cells EC50 (μM)
HL-60 (Leukemia) = assay: Proliferation of HL-60; format: cell-based; settings: for IC50: Homo sapiens, HL-60, read-out: IC50 HL-60 (Leukemia)
Method: as §1
(§2) The compounds in this disclosure were tested for their potency in blocking proliferation of a few other cancer cells lines, including K-Ras mutant pancreatic cell lines Panc2.13 and KP-4, leukemia cell line HL-60, and lymphoma cell lines Namalwa and Mino. Similar procedures as in Example 67 were followed. Initial cell numbers seeded in 96-well plates were different for different cell lines: 3000 cells/well for Panc2.13; 800-1000 cells/well for KP-4; 5000 cells/well for HL-60; 5000-10000 cells/well for Namalwa and Mino. A ratio of (IC50 of K101)/(IC50 of compound) (data in parenthesis in Table 5) was used to normalize the compound potency from different assay batches to a common comparator K101.

KP-4 (Pancreatic) = assay: Proliferation of KP-4; format: cell-based; settings: 96 h; read-out: IC50 KP-4 (Pancreatic)
Method: as §1, §2

Mino (Lymphoma) = assay: Proliferation of Mino; format: cell-based; settings: for IC50: Homo sapiens, MINO, read-out: IC50 Mino (Lymphoma)
Method: as §1, §2

Namalwa (Lymphoma) = assay: Proliferation of Namalwa; format: cell-based; settings: for IC50: read-out: IC50 Namalwa (Lymphoma)
Method: as §1, §2

Panc2.13 (Pancreatic) = assay: Proliferation of Panc2.13; format: cell-based
Method: as §1, §2

CT26 tumors = assay: CT26 tumor after single dose intratumoral treatment, H&E stain and CD31 IHC; format: in vivo, mouse; settings: for CD31 IHC (counts per mm^2) / H&E Necrotic tumor area (%): individual tumors
Method: Method. Each 6-8 weeks old female Balb/c mouse was implanted with 3×10^5 CT26 mouse colon cancer cells in one flank for tumor development. When the average tumor volume reached 95 mm^3, 21 mice were randomized into different groups and were treated via a single IT injection (20 uL) according to the group assignment (different dose and treatment duration) in the table below. Tumors were harvested at 1h, 7h, or 24h post IT injection, and then fixed and processed for paraffin embedding.
Paraffin blocks were sectioned into […] sections using Leica RM2235 microtome. One section was stained for Hematoxylin-Eosin (H&E) using Leica ST5020-CV5030 stainer integrated workstation according to the Manufacture's procedure. Photos were taken using Nikon DS-Ri2. Another section was processed for IHC staining with the CD31 antibody (BD, Cat #550274) at 1:10 dilution. The stained slides were scanned using Leica Aperio VERSA 8 and the images were analyzed using HALO image analysis software system (Indica Labs).

C1b domain of human PKCδ = target: T1, C1b domain of human PKCδ (Homo sapiens, UniProt Q05655); assay: biochemical; format: binding; settings: 3H-PDBu competition
T1 construct: Genes encoding C1b domains of human PKCα, δ, ε, θ, and PKD1 (PKCμ) were synthesized; made in house; host or cells: E. coli BL21(DE3)
Method: (§3) Compounds described in this disclosure were tested for binding affinity to C1b domain of PKC isoforms. Compound binding affinity to C1b domain of PKC isoforms was derived from competitive binding assay using radioactive tracer ^3H-PDBu and recombinant GST-C1b or full-length of human PKC proteins based on modified procedures from Methods in Molecular Biology, vol.
(§4) Genes encoding C1b domains of human PKCα, δ, ε, θ, and PKD1 (PKCμ) were synthesized and inserted into pGEX-2TK or pGEX-4T1 vectors for expression and production of GST-C1b proteins in E. coli BL21(DE3) via IPTG induction. The target proteins were purified by glutathione sepharose 4B and followed by ion exchange chromatography if needed to achieve purity >70%. Aliquots of the purified proteins were stored at −80 degree for binding assay (storage buffer: 20 mM Tris pH 8.0, 200 mM NaCl, 10% glycerol, 1 mM DTT).
(§5) The plate was incubated at 37° C. on a shaker at 300 rpm for 10 minutes and then put on ice for 20 minutes. […] The bottom of the filter plate was sealed and 50 μL of MicroScint-20 (PerkinElmer) cocktail was added to each well. ^3H-PDBu trapped in each well was counted using PerkinElmer MicroBeta2 Reader. Data were analyzed using GraphPad Prism5 with the model “log(inhibitor) vs. response-variable slope” to fit the IC50, and then IC50 was transformed to Ki using Cheng-Prusoff equation: Ki=IC50/(1+added radio ligand/Kd). Kd is the binding affinity of each protein preparation to ^3H-PDBu, determined experimentally.

C1b domain of human PKCε = target: T2, C1b domain of human PKCε (Homo sapiens, UniProt Q02156); assay: biochemical; format: binding; settings: 3H-PDBu competition
T2 construct: Genes encoding C1b domains of human PKCα, δ, ε, θ, and PKD1 (PKCμ) were synthesized; made in house; host or cells: E. coli BL21(DE3)
Method: as §3, §4, §5

C1b domain of human PKCθ = target: T3, C1b domain of human PKCθ (Homo sapiens, UniProt Q04759); assay: biochemical; format: binding; settings: 3H-PDBu competition
T3 construct: Genes encoding C1b domains of human PKCα, δ, ε, θ, and PKD1 (PKCμ) were synthesized; made in house; host or cells: E. coli BL21(DE3)
T3 sequence (Q04759 231-281 limits assumed): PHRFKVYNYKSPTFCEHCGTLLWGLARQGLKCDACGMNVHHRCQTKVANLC
Method: as §3, §4, §5

[2] = target: T4, C1b domain of human PKD1 (PKCμ) (Homo sapiens, UniProt Q15139); assay: Competitive 3H-PDBu binding assay, C1b domain of PKD1 (PKCμ); settings: 3H-PDBu competition
T4 construct: Genes encoding C1b domains of human PKCα, δ, ε, θ, and PKD1 (PKCμ) were synthesized; made in house; host or cells: E. coli BL21(DE3)
T4 sequence (Q15139 270-320 limits assumed): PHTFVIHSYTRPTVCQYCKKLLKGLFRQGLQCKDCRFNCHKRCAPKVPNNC
Method: as §3, §4, §5

T2 sequence (Q02156 242-292 limits assumed): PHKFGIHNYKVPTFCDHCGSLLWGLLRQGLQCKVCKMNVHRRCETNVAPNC
T1 sequence (Q05655 230-280 limits assumed): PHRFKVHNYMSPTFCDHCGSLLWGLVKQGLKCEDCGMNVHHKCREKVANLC

## CC1=C[C@H]2[C@@]3(O)[C@H](C)C[C@]4(OC(=O)[C@@H](N)Cc5ccc(C(F)(F)F)cc5)[C@H]([C@@H]3C=C(CO)C[C@]2(O)C1=O)C4(C)C
A549 cell line; Homo sapiens, A549, 96 h
  IC50: 0.06 to 0.1 µM
[1]
  EC50: 0.06 to 0.1 µM
HL-60 (Leukemia)
  ratio (IC50 of K101)/(IC50 of compound) HL-60: 6.43
  IC50: 30 to 60 nM
KP-4 (Pancreatic)
  IC50: 100 to 600 nM
Mino (Lymphoma)
  ratio (IC50 of K101)/(IC50 of compound) Mino: 6.2
  IC50: 10 to 30 nM
Namalwa (Lymphoma)
  ratio (IC50 of K101)/(IC50 of compound) Namalwa: 1.68
  IC50: 30 to 60 nM
Panc2.13 (Pancreatic)
  ratio (IC50 of K101)/(IC50 of compound) Panc2.13: 6.79
Panc2.13 (Pancreatic); read-out: IC50 Panc2.13 (Pancreatic)
  IC50: 100 to 200 nM

## CC1=C[C@H]2[C@@]3(O)[C@H](C)C[C@]4(OC(=O)[C@H](N)CCCCCCc5ccccc5)[C@H]([C@@H]3C=C(COC(=O)[C@@H](N)C(C)C)C[C@]2(O)C1=O)C4(C)C
A549 cell line; Homo sapiens, A549, 96 hours, CellTiter Glo
  IC50: 0.03 to 0.06 µM
CT26 tumors; 47.2 μg single IT, 24 h
  CD31 IHC (counts per mm^2): 163 counts per mm^2 and 111 counts per mm^2
  H&E Necrotic tumor area (%): 40% and 70%
CT26 tumors; 47.2 μg, 7h
  tumors with reduction of CD31 density: 2 out of 3
CT26 tumors; 141.6 μg single IT, 24 h
  CD31 IHC (counts per mm^2): 176 counts per mm^2 and 29 counts per mm^2 and 72 counts per mm^2
  H&E Necrotic tumor area (%): 80% (2×) and 90%
CT26 tumors; 472 μg single IT, 1 h
  CD31 IHC (counts per mm^2): 577 counts per mm^2 and 457 counts per mm^2 and 463 counts per mm^2
  H&E Necrotic tumor area (%): 5% and 3% and 0%
CT26 tumors; 472 μg single IT, 7 h
  CD31 IHC (counts per mm^2): 188 counts per mm^2 and 536 counts per mm^2 and 179 counts per mm^2
  H&E Necrotic tumor area (%): 10% and 0% and 25%
CT26 tumors; 472 μg single IT, 24 h
  CD31 IHC (counts per mm^2): 155 counts per mm^2 and 187 counts per mm^2 and 118 counts per mm^2
  H&E Necrotic tumor area (%): 40% and 30% and 90%
CT26 tumors; all three doses, 24h
  massive cell death in tumors: up to 90%

## CC1=C[C@H]2[C@@]3(O)[C@H](C)C[C@]4(OC(=O)[C@H](N)C(C)(C)c5ccc(C(F)(F)F)cc5)[C@H]([C@@H]3C=C(CO)C[C@]2(O)C1=O)C4(C)C
C1b domain of human PKCδ
  Ki: 10 to 30 nM
C1b domain of human PKCε
  Ki: 10 to 30 nM
C1b domain of human PKCθ
  Ki: 10 to 30 nM
A549 cell line; Homo sapiens, A549, 96 h
  IC50: 0.2 to 0.6 µM
[1]
  EC50: 0.1 to 0.2 µM
HL-60 (Leukemia)
  ratio (IC50 of K101)/(IC50 of compound) HL-60: 2.75
  IC50: 100 to 200 nM
Mino (Lymphoma)
  ratio (IC50 of K101)/(IC50 of compound) Mino: 3.88
  IC50: 10 to 30 nM
Namalwa (Lymphoma)
  ratio (IC50 of K101)/(IC50 of compound) Namalwa: 0.49
  IC50: 100 to 200 nM

## CC1=C[C@H]2[C@@]3(O)[C@H](C)C[C@]4(OC(=O)[C@H](N)CCCCCCCCc5ccccc5)[C@H]([C@@H]3C=C(CO)C[C@]2(O)C1=O)C4(C)C
C1b domain of human PKCδ
  Ki: 10 to 30 nM
C1b domain of human PKCε
  Ki: 10 to 30 nM
C1b domain of human PKCθ
  Ki: 10 to 30 nM
A549 cell line; Homo sapiens, A549, 96 h
  IC50: 0.01 to 0.03 µM

## CC1=C[C@H]2[C@@]3(O)[C@H](C)C[C@]4(OC(=O)[C@@H](N)CCCCCCc5ccc(C(F)F)cc5)[C@H]([C@@H]3C=C(CO)C[C@]2(O)C1=O)C4(C)C
C1b domain of human PKCδ
  Ki: 10 to 30 nM
C1b domain of human PKCθ
  Ki: 10 to 30 nM
A549 cell line; Homo sapiens, A549, 96 h
  IC50: 0.1 to 0.2 µM

## CCCCCCCCCCCCCC(=O)O[C@@H]1[C@@H](C)[C@@]2(O)[C@@H](C=C(CO)C[C@]3(O)C(=O)C(C)=C[C@@H]23)[C@@H]2C(C)(C)[C@]12OC(C)=O [Compound K103, 12-O-Tetradecanoylphorbol-13-acetate, reference compound]
C1b domain of human PKCδ
  Ki: < 5 nM
C1b domain of human PKCε
  Ki: < 5 nM
C1b domain of human PKCθ
  Ki: < 5 nM
A549 cell line; 96 hours, CellTiter Glo
  IC50: < 0.01 µM
[2]
  Ki: < 5 nM
